Patent US5508301A, “Ketorolac derivatives with considerably reduced gastro-intestinal irritation and ulceration” (Roemmers S.A.I.C.F., priority 1993, dated 1996)
Counter-ions that a name gives are not always drawn. Like-named read-outs stand apart in the source and are kept apart here.

How the values were obtained:
rat = settings: LD50, species not stated in the sentence itself
[1] = Antipyretic effect: temperature increase by beer yeast, rectal temperature, oral administration; format: in vivo; settings: p.o., rat, rectal temperature 5, 6, 7 and 8 hours after administration, read-out: Antipyretic Effect p.o. of 50
Protocol: (§1) The antipyretic effect was determined by increasing the rat's temperature by means of beer yeast by 20% and the rectal temperature of the rat was measured 5, 6, 7 and 8 hours after the administration. The percentage of increase compared to the comparison sample was measured.

[2] = rat, in vivo
in vivo [3] = settings: rat, po
in vivo [4] = settings: mouse, po, read-out: Acute Toxicity p.o. LD50 (mg/kg) in the mouse
[5] = rat, in vivo; remark: listed apart in the source
[6] = Comparison tests as to the pharmacological effect (analgetic/antiphlogistic and antipyretic), overall statement; format: in vivo, rat; settings: B compared with A; C compared with pyrrolidine ester
Protocol: The analgetic effect was measured by the test of inhibition of the contortions generated by peritoneal administration of 0.1 ml acetic acid (3%).
The antiinflammatory effect was evaluated by the Paw-Edema method in which carragenin (1%) was used and the percentage of the decrease of the volume increase was measured at the Paw of the rat.
as §1

[7] = Comparison tests as regards the undesired side effects, overall statement; settings: test not shown in the table; compared with 2-(1-pyrrolidinyl)ethyl ester
[8] = rat, in vivo; remark: listed apart in the source
Protocol: The ulceration effect was determined in three groups of 6 rats each. […] The ulceration effect was evaluated microscopically by means of an ulceration index which corresponds to the sum of evaluations of each animal, multiplied by the percentage of animals above null, divided by the total number of animals (0=normal; 1=minor haemorrhages; 2=considerable haemorrhages; 3=small ulcus; 4=large ulcus, more than 2 mm; 5=perforated ulcus).
The same animals were examined for the degree of injury probability of stomach tissue by means of a microscopic quantification of different degrees of lesions: no change, haemorrhages, necrosis.

[9] = rat, in vivo; remark: listed apart in the source

O=C(c1ccccc1)c1ccc2n1CCC2C(=O)O (centres unmarked) [A]
acute toxicity, in words (rat): acceptable acute toxicity
acute toxicity, in words (rat; listed as ketorolac trometamole salt): comparable and acceptable
ED50 [1]: ~3 mg/kg
Possibility of Injuries of Stomach Tissue: animals with haemorrhages [2]: 2 animals
Possibility of Injuries of Stomach Tissue: animals with necrosis [2]: 4 animals
Possibility of Injuries of Stomach Tissue: animals without changes [2]: 0 animals
test of possible injuries of stomach tissue, in words [2]: all show haemorrhages or necrosis
LD50 (in vivo [3]): 105 mg/kg
LD50 (in vivo [4]): 118 mg/kg

CCN(CC)CCOC(=O)C1CCn2c(C(=O)c3ccccc3)ccc21 (centres unmarked) [C, maleate of 2-(diethylamino)ethyl ester of ketorolac]
acute toxicity, in words (rat): comparable and acceptable
ED50 [1]: ~3 mg/kg
Possibility of Injuries of Stomach Tissue: animals with haemorrhages [2]: 0 animals
Possibility of Injuries of Stomach Tissue: animals with necrosis [2]: 5 animals
Possibility of Injuries of Stomach Tissue: animals without changes [2]: 1 animals
test of possible injuries of stomach tissue, in words [2]: much greater with the former than with the latter
LD50 (in vivo [4]): 198 mg/kg
ulceration index relative to that of 2-(1-pyrrolidinyl)ethyl ester [5]: twice as high as that of 2-(1-pyrrolidinyl)ethyl ester
pharmaceutical/pharmacological effect (analgetic/antiphlogistic and antipyretic), in words [6]: practically the same

O=C(c1ccccc1)c1ccc2n1CCC2C(=O)OCCN1CCCCC1 (centres unmarked) [2-(1-piperidinyl)ethyl ester]
undesired side effects, in words [7]: the said advantages will not be obtained

O=C(c1ccccc1)c1ccc2n1CCC2C(=O)OCCN1CCOCC1 (centres unmarked) [2-(4-morpholinyl)ethyl ester]
undesired side effects, in words [7]: the said advantages will not be obtained

O=C(c1ccccc1)c1ccc2n1CCC2C(=O)OCCN1CCCC1 (centres unmarked) [B, oxalate of 2-(1-pyrrolidinyl)ethyl ester of ketorolac]
acute toxicity, in words (rat): acceptable acute toxicity
acute toxicity, in words (rat; listed as oxalate of 2-(1-pyrrolidinyl)ethyl ester of ketorolac): comparable and acceptable
ED50 [1]: > 3 mg/kg
Possibility of Injuries of Stomach Tissue: animals with haemorrhages [2]: 0 animals
Possibility of Injuries of Stomach Tissue: animals with necrosis [2]: 0 animals
Possibility of Injuries of Stomach Tissue: animals without changes [2]: 6 animals
test of possible injuries of stomach tissue, in words [2]: all animals remain unchanged
undesired side effects compared with trometamole salt of ketorolac, in words [8]: considerably less undesired side effects than the trometamole salt of ketorolac
destruction index of the gastric mucosa, in words [9]: considerably lower than with (A)
LD50 (in vivo [3]): 235 mg/kg
LD50 (in vivo [4]): 93 mg/kg
ulceration index relative to that detected with (A) [5]: merely one third of that detected with (A)
